For series [1] the following is noted: 298.2 K; 101.33 kPa; Liquid; Vibrating tube method.
Series [2] can be described thus: refractive index (Na D-line) (dimensionless). The note with it: 298.2 K; 101.33 kPa; Liquid; Standard Abbe refractometry.

± gives the expanded uncertainty stated by the source.

By mass density is commonly meant mass per unit of volume. For orientation: refractive index means a measure of how strongly the sample bends light. For the molecule `CC1CN1` (stereo not given) [2-methylaziridine], the mass density in series [1] was 802.23 ± 0.8 kg/m3. Also, the refractive index in series [2] is listed as 1.4116 ± 0.0006.

Regarding `ClC(Cl)Cl` [trichloromethane], the mass density in series [1] worked out at 1480.34 ± 0.34 kg/m3. Further, the refractive index in series [2] is 1.4456 ± 0.0004. As to `O` [water], the refractive index in series [2] is reported as 1.333 ± 0.0004.
